Data reported in patent US10125111B2, “Benzofuran compounds for the treatment of hepatitis C” (BRISTOL-MYERS SQUIBB COMPANY, priority 2015, dated 2018).

Assays:
[1] = test system: genotype 1b (Con-1) HCV replicon; test: HCV Replicon Luciferase Assay; type: cell-based; conditions: Hepatitis C virus, 72 h; Huh-7 genotype 1b replicon, Renilla luciferase, 3 days incubation; read-out: EC50 1b (class)
Protocol: The cell lines used to evaluate compounds consist of a human hepatocyte derived cell line (Huh-7) that constitutively expresses a genotype 1b (Con-1) HCV replicon or a genotype 1b (Con-1) HCV replicon with an asparagine replacing the cysteine at amino acid 316, or a genotype 2a (JFH-1) replicon, containing a Renilla luciferase reporter gene. These cells were maintained in Dulbecco's modified Eagle medium (DMEM) containing 10% FBS, 100 U/mL penicillin/streptomycin and 1.0 mg/mL G418.
To evaluate compound efficacy, titrated compounds were transferred to sterile 384-well tissue culture treated plates, and the plates were seeded with HCV replicon cells (50 μL at a density of 2.4×10^3 cells/well) in DMEM containing 4% FBS (final DMSO concentration at 0.5%). After 3 days incubation at 37° C., cells were analyzed for Renilla Luciferase activity using the EnduRen substrate (Promega cat #E6485) according to the manufacturer's directions. Briefly, the EnduRen substrate was diluted in DMEM and then added to the plates to a final concentration of 7.5 μM. The plates were incubated for at least 1 h at 37° C. then read on a Viewlux Imager (PerkinElmer) using a luminescence program. The 50% effective concentration (EC50) was calculated using the four-parameter logistic Formula noted above.
Compound EC50 data is expressed as A: <100 nM; B=100-1000 nM; C>1000 nM).

[2] = test system: HCV; conditions: cited from earlier work

CNC(=O)c1c(-c2ccc(F)cc2)oc2cc(N(CCC(F)(F)F)S(C)(=O)=O)c(-c3cccc(C(=O)NC(C)(C)CF)c3)cc12 [Compound 9007]
EC50 [1]: < 100 nM

CNC(=O)c1c(-c2ccc(F)cc2)oc2cc(N(CCO)S(C)(=O)=O)c(C3CC3)cc12 [HCV-796]
toxicity during extended dosing ([2]; combination regimens with interferon and ribavirin): hepatic toxicity

alpha-interferon and ribavirin
sustained efficacy, patients ([2]; combination therapy, patients): 40%
